Data as given in patent US20150238494A1, “HIGHLY SOLUBLE PURINE BIOACTIVE COMPOUNDS AND COMPOSITIONS THEREOF” (JHO Intellectual Property Holdings, LLC, priority 2014, published 2015).

Assays:
[1] = Stability of theacrine solution 1.3 mg/ml in USP Type I glass vials, 15 weeks at RT and 40° C.; format: physicochemical; settings: 1.3 mg/ml solution, in % (unit assumed)
Protocol: The Table 1 below is data indicating assay results for stability of a theacrine solution prepared at 1.3 mg/ml and stored in USP Type I Glass vials for 15 weeks at RT and 40° C.

[2] = Stability of theacrine solutions 0.1%, 0.2%, 0.4% in USP type I glass vials, 3 months at 40° C.; format: physicochemical; settings: Storage 40 C., in % (unit assumed)

Assay ([1]; Room Temperature (RT), 1-wk): 98.7
Assay ([1]; Room Temperature (RT), 2-wk): 100.1
Assay ([1]; Room Temperature (RT), 4-wk): 99.2
Assay ([1]; Room Temperature (RT), 8-wk): 99.9
Assay ([1]; Room Temperature (RT), 15-wk): 99.3
Assay ([1]; Room Temperature (RT), Initial): 99.6
Assay ([1]; Storage 40 C., 1-wk): 98.2
Assay ([1]; Storage 40 C., 2-wk): 98.9
Assay ([1]; Storage 40 C., 4-wk): 98.7
Assay ([1]; Storage 40 C., 8-wk): 98.6
Assay ([1]; Storage 40 C., 15-wk): 98.0
Assay ([1]; Storage 40 C., Initial): 99.6
Assay value ([2]; 0.1% Solution, 1-M): 101
Assay value ([2]; 0.1% Solution, 2-M): 100.4
Assay value ([2]; 0.1% Solution, 3-M): 100.7
Assay value ([2]; 0.1% Solution, 10-d): 100.4
Assay value ([2]; 0.1% Solution, Initial): 100.6
Assay value ([2]; 0.2% Solution, 1-M): 98.9
Assay value ([2]; 0.2% Solution, 2-M): 97.5
Assay value ([2]; 0.2% Solution, 3-M): 99.4
Assay value ([2]; 0.2% Solution, 10-d): 98.6
Assay value ([2]; 0.2% Solution, Initial): 99.8
Assay value ([2]; 0.4% Solution, 1-M): 94.9
Assay value ([2]; 0.4% Solution, 2-M): 95.3
Assay value ([2]; 0.4% Solution, 3-M): 95.8
Assay value ([2]; 0.4% Solution, 10-d): 92.3
Assay value ([2]; 0.4% Solution, Initial): 94.1
Compound: Cn1c(=O)c2c(n(C)c1=O)n(C)c(=O)n2C [Theacrine, 1,3,7,9-Tetramethyluric acid]
